Measurements published in PubChem BioAssay (NCI).
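Dose response: 5 concentrations. Exposure: 48 h. Format: 96-well plates. Endpoint: linear interpolation; highest concentration if not reached. At the TGI there is no net growth.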

Legend:
Test in all cases: DTP human tumour cell line panel, 48 h
786-0 renal = tested on: 786-0 renal
A498 renal = tested on: A498 renal
A549 NSCLC = tested on: A549 NSCLC
ACHN renal = tested on: ACHN renal
CAKI-1 renal = tested on: CAKI-1 renal
CCRF-CEM leukemia = tested on: CCRF-CEM leukemia
DLD-1 colon = tested on: DLD-1 colon
DMS 114 small cell lung = tested on: DMS 114 small cell lung
EKVX NSCLC = tested on: EKVX NSCLC
HCC-2998 colon = tested on: HCC-2998 colon
HCT-116 colon = tested on: HCT-116 colon
HCT-15 colon = tested on: HCT-15 colon
HL-60(TB) leukemia = tested on: HL-60(TB) leukemia
HOP-92 NSCLC = tested on: HOP-92 NSCLC
HT29 colon = tested on: HT29 colon
IGROV1 ovarian = tested on: IGROV1 ovarian
K-562 leukemia = tested on: K-562 leukemia
KM12 colon = tested on: KM12 colon
KM20L2 colon = tested on: KM20L2 colon
LOX IMVI melanoma = tested on: LOX IMVI melanoma
LXFL 529 NSCLC = tested on: LXFL 529 NSCLC
M14 melanoma = tested on: M14 melanoma
MALME-3M melanoma = tested on: MALME-3M melanoma
MOLT-4 leukemia = tested on: MOLT-4 leukemia
NCI-H226 lung = tested on: NCI-H226 lung
NCI-H23 lung = tested on: NCI-H23 lung
NCI-H460 lung = tested on: NCI-H460 lung
OVCAR-4 ovarian = tested on: OVCAR-4 ovarian
OVCAR-5 ovarian = tested on: OVCAR-5 ovarian
OVCAR-8 ovarian = tested on: OVCAR-8 ovarian
RPMI-8226 leukemia = tested on: RPMI-8226 leukemia
RXF 393 renal = tested on: RXF 393 renal
SF-268 CNS = tested on: SF-268 CNS
SF-295 CNS = tested on: SF-295 CNS
SF-539 CNS = tested on: SF-539 CNS
SK-MEL-2 melanoma = tested on: SK-MEL-2 melanoma
SK-MEL-28 melanoma = tested on: SK-MEL-28 melanoma
SK-MEL-5 melanoma = tested on: SK-MEL-5 melanoma
SK-OV-3 ovarian = tested on: SK-OV-3 ovarian
SN12C renal = tested on: SN12C renal
SNB-19 CNS = tested on: SNB-19 CNS
SNB-75 CNS = tested on: SNB-75 CNS
SNB-78 CNS = tested on: SNB-78 CNS
SR leukemia = tested on: SR leukemia
SW-620 colon = tested on: SW-620 colon
TK-10 renal = tested on: TK-10 renal
U251 CNS = tested on: U251 CNS
UACC-257 melanoma = tested on: UACC-257 melanoma
UACC-62 melanoma = tested on: UACC-62 melanoma
UO-31 renal = tested on: UO-31 renal
BT-549 breast = tested on: BT-549 breast
COLO 205 colon = tested on: COLO 205 colon
DU-145 prostate = tested on: DU-145 prostate
HOP-62 NSCLC = tested on: HOP-62 NSCLC
HS 578T breast = tested on: HS 578T breast
MCF7 breast = tested on: MCF7 breast
MDA-MB-231 breast = tested on: MDA-MB-231 breast
MDA-MB-435 = tested on: MDA-MB-435
MDA-N = tested on: MDA-N
NCI-H522 lung = tested on: NCI-H522 lung
NCI/ADR-RES ovarian = tested on: NCI/ADR-RES ovarian
OVCAR-3 ovarian = tested on: OVCAR-3 ovarian
PC-3 prostate = tested on: PC-3 prostate
T-47D breast = tested on: T-47D breast

`CC(=O)/C=C1\CC(=O)Nc2ccccc2N1` was tested, and the TGI (786-0 renal) was > 100 µM, the TGI (A498 renal) was > 100 µM and the TGI (A549 NSCLC) was > 100 µM. The TGI (ACHN renal) was > 100 µM, the TGI (CAKI-1 renal) was > 100 µM and the TGI (CCRF-CEM leukemia) was > 100 µM. The TGI (DLD-1 colon) was > 100 µM, the TGI (DMS 114 small cell lung) was > 100 µM and the TGI (EKVX NSCLC) was > 100 µM. For the same compound, the TGI (HCC-2998 colon) was > 100 µM, the TGI (HCT-116 colon) was > 100 µM and the TGI (HCT-15 colon) was > 100 µM. For the same compound, the TGI (HL-60(TB) leukemia) was > 100 µM, the TGI (HOP-92 NSCLC) was > 100 µM and the TGI (HT29 colon) was > 100 µM. For the same compound, the TGI (IGROV1 ovarian) was > 100 µM, the TGI (K-562 leukemia) was > 100 µM and the TGI (KM12 colon) was > 100 µM. The TGI (KM20L2 colon) was > 100 µM, the TGI (LOX IMVI melanoma) was > 100 µM and the TGI (LXFL 529 NSCLC) was > 100 µM. For the same compound, the TGI (M14 melanoma) was > 100 µM, the TGI (MALME-3M melanoma) was > 100 µM and the TGI (MOLT-4 leukemia) was > 100 µM. The TGI (NCI-H226 lung) was > 100 µM, the TGI (NCI-H23 lung) was > 100 µM and the TGI (NCI-H460 lung) was > 100 µM. For the same compound, the TGI (OVCAR-4 ovarian) was > 100 µM, the TGI (OVCAR-5 ovarian) was > 100 µM and the TGI (OVCAR-8 ovarian) was > 100 µM. For the same compound, the TGI (RPMI-8226 leukemia) was > 100 µM, the TGI (RXF 393 renal) was > 100 µM and the TGI (SF-268 CNS) was > 100 µM. For the same compound, the TGI (SF-295 CNS) was > 100 µM, the TGI (SF-539 CNS) was > 100 µM and the TGI (SK-MEL-2 melanoma) was > 100 µM. For the same compound, the TGI (SK-MEL-28 melanoma) was > 100 µM, the TGI (SK-MEL-5 melanoma) was > 100 µM and the TGI (SK-OV-3 ovarian) was > 100 µM. The TGI (SN12C renal) was > 100 µM, the TGI (SNB-19 CNS) was > 100 µM and the TGI (SNB-75 CNS) was > 100 µM. The TGI (SNB-78 CNS) was > 100 µM, the TGI (SR leukemia) was > 100 µM and the TGI (SW-620 colon) was > 100 µM. For the same compound, the TGI (TK-10 renal) was > 100 µM, the TGI (U251 CNS) was > 100 µM and the TGI (UACC-257 melanoma) was > 100 µM. For the same compound, the TGI (UACC-62 melanoma) was > 100 µM and the TGI (UO-31 renal) was > 100 µM.
`COc1ccc(C2SCC(=O)N2NC(=O)C(C)Oc2ccccc2C)cc1` (centres undefined) was tested, and the TGI (786-0 renal) was > 100 µM, the TGI (A498 renal) was > 100 µM and the TGI (A549 NSCLC) was > 100 µM. The TGI (ACHN renal) was > 100 µM, the TGI (BT-549 breast) was > 100 µM and the TGI (CAKI-1 renal) was > 100 µM. The TGI (CCRF-CEM leukemia) was > 100 µM, the TGI (COLO 205 colon) was > 100 µM and the TGI (DU-145 prostate) was > 100 µM. For the same compound, the TGI (EKVX NSCLC) was > 100 µM, the TGI (HCC-2998 colon) was > 100 µM and the TGI (HCT-116 colon) was > 100 µM. The TGI (HCT-15 colon) was > 100 µM, the TGI (HL-60(TB) leukemia) was 61.2 µM and the TGI (HOP-62 NSCLC) was > 100 µM. For the same compound, the TGI (HOP-92 NSCLC) was > 100 µM, the TGI (HS 578T breast) was > 100 µM and the TGI (HT29 colon) was > 100 µM. For the same compound, the TGI (IGROV1 ovarian) was > 100 µM, the TGI (K-562 leukemia) was > 100 µM and the TGI (KM12 colon) was > 100 µM. For the same compound, the TGI (LOX IMVI melanoma) was > 100 µM, the TGI (M14 melanoma) was > 100 µM and the TGI (MALME-3M melanoma) was > 100 µM. The TGI (MCF7 breast) was > 100 µM, the TGI (MDA-MB-231 breast) was > 100 µM and the TGI (MDA-MB-435) was > 100 µM. For the same compound, the TGI (MDA-N) was > 100 µM, the TGI (MOLT-4 leukemia) was 87.9 µM and the TGI (NCI-H226 lung) was > 100 µM. The TGI (NCI-H23 lung) was > 100 µM, the TGI (NCI-H460 lung) was > 100 µM and the TGI (NCI-H522 lung) was > 100 µM. The TGI (NCI/ADR-RES ovarian) was > 100 µM, the TGI (OVCAR-3 ovarian) was > 100 µM and the TGI (OVCAR-4 ovarian) was > 100 µM. For the same compound, the TGI (OVCAR-5 ovarian) was > 100 µM, the TGI (OVCAR-8 ovarian) was > 100 µM and the TGI (PC-3 prostate) was > 100 µM. For the same compound, the TGI (RPMI-8226 leukemia) was > 100 µM, the TGI (RXF 393 renal) was > 100 µM and the TGI (SF-268 CNS) was > 100 µM. For the same compound, the TGI (SF-295 CNS) was > 100 µM, the TGI (SF-539 CNS) was > 100 µM and the TGI (SK-MEL-2 melanoma) was > 100 µM. For the same compound, the TGI (SK-MEL-28 melanoma) was > 100 µM, the TGI (SK-MEL-5 melanoma) was > 100 µM and the TGI (SK-OV-3 ovarian) was > 100 µM. The TGI (SN12C renal) was > 100 µM, the TGI (SNB-19 CNS) was > 100 µM and the TGI (SNB-75 CNS) was > 100 µM. The TGI (SR leukemia) was > 100 µM, the TGI (SW-620 colon) was > 100 µM and the TGI (T-47D breast) was > 100 µM. For the same compound, the TGI (TK-10 renal) was > 100 µM, the TGI (U251 CNS) was > 100 µM and the TGI (UACC-257 melanoma) was > 100 µM. The TGI (UACC-62 melanoma) was > 100 µM and the TGI (UO-31 renal) was > 100 µM.
